Reference: publication PMC12583704 (Signal Transduction and Targeted Therapy, 2025)

Assay: Phase 1 study NCT03594422: adverse events graded by NCI CTCAE v4.03
Assay type: in vivo, human
Description: Part 1 was a dose-escalation study to determine the recommended phase 2 dose (RP2D) in solid tumors. […] The initial design was a 3 + 3 dose escalation from 20 mg, but the protocol was amended to randomly enroll and assign patients to starting doses of 30, 40, and 50 mg on the basis of safety data acquired in the CML trial.[20] […] An interactive web response system was used for randomization. Part 2 was a nonrandomized study focusing on patients with SDH-deficient GISTs. […] On the basis of preliminary data from adult patients, adolescent patients with advanced wild-type GISTs were also included in Part 2. The dosage for adolescents was adjusted according to their body weights.
AEs were evaluated at each follow-up visit: on Days 1, 8, 15, and 22 during Cycles 1 and 2; and on Days 1 and 15 in Cycle 3 and all subsequent cycles, up to 30 days after the final dose. All AEs were graded according to the National Cancer Institute Common Terminology Criteria for Adverse Events v4.03. Clinical laboratory investigations for routine blood examinations and serum chemistry parameters were performed during every cycle (on Day 1), during Cycles 1 and 2 (on Days 8, 15, and 22), and 30 days after the last dose of treatment. Urinalysis, coagulation, cardiac troponin I/T, lipase, amylase, and electrocardiographic evaluations were conducted at baseline; during Cycles 1 and 2 (on Days 1 and 15); during Cycles 3, 5, 7, and 9; every three cycles after Cycle 9 (on Day 1); and 14 days after the last dose of treatment. All patients underwent tumor imaging for response assessment via computed tomography or magnetic resonance imaging at screening and every two cycles (8 weeks) until progression or discontinuation. Target and nontarget lesions were assessed per the Response Evaluation Criteria in Solid Tumors version 1.1 (RECIST v1.1).

## Cc1ccc(C(=O)Nc2ccc(CN3CCN(C)CC3)c(C(F)(F)F)c2)cc1C#Cc1cnc2[nH]ncc2c1 [Olverembatinib, 3-[(1H-pyrazolo[3,4-b]pyridin-5-yl)ethynyl]-4-methyl-N-{4-[(4-methylpiperazin-1-yl)methyl]-3-(trifluoromethyl)phenyl]benzamide]
20 mg (n = 3), Any grade
  TEAE: Abdominal pain: 0 n (%)
  TEAE: Alanine aminotransferase increased: 0 n (%)
  TEAE: Anemia: 1 (33.3) n (%)
  TEAE: Aspartate aminotransferase increased: 0 n (%)
  TEAE: C-reactive protein increased: 0 n (%)
  TEAE: Constipation: 2 (66.7) n (%)
  TEAE: Fatigue: 0 n (%)
  TEAE: Hyperuricemia: 2 (66.7) n (%)
  TEAE: Hypoalbuminemia: 0 n (%)
  TEAE: Leukocyte count increased: 1 (33.3) n (%)
  TEAE: Melanocytic nevus: 0 n (%)
  TEAE: Neutrophil count increased: 1 (33.3) n (%)
  TEAE: Pyrexia: 0 n (%)
  TEAEs: 3 (100.0) n (%)
  TRAE: ALT increased: 0 n (%)
  TRAE: AST increased: 0 n (%)
  TRAE: Anemia: 0 n (%)
  TRAE: Blood creatinine increased: 0 n (%)
  TRAE: Constipation: 1 (33.3) n (%)
  TRAE: Fatigue: 0 n (%)
  TRAE: Hypoalbuminemia: 0 n (%)
  TRAE: Leukocyte count increased: 1 (33.3) n (%)
  TRAE: Melanocytic nevus: 0 n (%)
  TRAE: Neutrophil count increased: 1 (33.3) n (%)
  TRAE: Platelet count increased: 0 n (%)
  TRAE: Pyrexia: 0 n (%)
20 mg (n = 3), Grade 3-5
  TEAE: Abdominal pain: 0 n (%)
  TEAE: Alanine aminotransferase increased: 0 n (%)
  TEAE: Anemia: 0 n (%)
  TEAE: Aspartate aminotransferase increased: 0 n (%)
  TEAE: C-reactive protein increased: 0 n (%)
  TEAE: Constipation: 0 n (%)
  TEAE: Fatigue: 0 n (%)
  TEAE: Hyperuricemia: 0 n (%)
  TEAE: Hypoalbuminemia: 0 n (%)
  TEAE: Leukocyte count increased: 0 n (%)
  TEAE: Melanocytic nevus: 0 n (%)
  TEAE: Neutrophil count increased: 0 n (%)
  TEAE: Pyrexia: 0 n (%)
  TEAEs: 0 n (%)
  TRAE: ALT increased: 0 n (%)
  TRAE: AST increased: 0 n (%)
  TRAE: Anemia: 0 n (%)
  TRAE: Blood creatinine increased: 0 n (%)
  TRAE: Constipation: 0 n (%)
  TRAE: Fatigue: 0 n (%)
  TRAE: Hypoalbuminemia: 0 n (%)
  TRAE: Leukocyte count increased: 0 n (%)
  TRAE: Melanocytic nevus: 0 n (%)
  TRAE: Neutrophil count increased: 0 n (%)
  TRAE: Platelet count increased: 0 n (%)
  TRAE: Pyrexia: 0 n (%)
30 mg (n = 15), Any grade
  TEAE: Abdominal pain: 5 (33.3) n (%)
  TEAE: Alanine aminotransferase increased: 6 (40.0) n (%)
  TEAE: Anemia: 8 (53.3) n (%)
  TEAE: Aspartate aminotransferase increased: 7 (46.7) n (%)
  TEAE: C-reactive protein increased: 3 (20.0) n (%)
  TEAE: Constipation: 5 (33.3) n (%)
  TEAE: Fatigue: 4 (26.7) n (%)
  TEAE: Hyperuricemia: 7 (46.7) n (%)
  TEAE: Hypoalbuminemia: 4 (26.7) n (%)
  TEAE: Leukocyte count increased: 8 (53.3) n (%)
  TEAE: Melanocytic nevus: 3 (20.0) n (%)
  TEAE: Neutrophil count increased: 6 (40.0) n (%)
  TEAE: Pyrexia: 5 (33.3) n (%)
  TEAEs: 15 (100.0) n (%)
  TRAE: ALT increased: 4 (26.7) n (%)
